Reference: US20220016277A1, “MACROCYCLIC COMPLEXES OF RADIONUCLIDES AND THEIR USE IN RADIOTHERAPY OF CANCER” (Cornell University, priority 2018, published 2022)

Assay: Organ distribution of ^225Ac complexes following intravenous injection in mice
Format: in vivo, C57BL/6 mice
Method: In Vivo Biodistribution of ^225Ac Complexes of Macropa and DOTA. All experiments were approved by the Institutional Animal Care Committee (IACC) of the University of British Columbia and were performed in accordance with the Canadian Council on Animal Care Guidelines. A total of 9 female C57BL/6 mice (6-8 weeks old, 20-25 g) were used for the biodistribution study of each radiometal complex, n=3 for each time point.
Macropa (100 μL of a 1 mg/mL solution in NH4OAc) was diluted with 387 μL of NH4OAc (1 M, pH 7), and an aliquot (203 μL) of ^225Ac(NO3)3 (˜157 kBq) was then added; the pH of this solution was adjusted to 6.5-7 by the addition of 1 M NaOH (210 μL, trace metal grade). After 5 min at ambient temperature, the reaction solution was analyzed by TLC (0.4 M pH 4 sodium citrate as the eluent), which confirmed >95% radiochemical yield. The reaction was allowed to proceed overnight, and the radiochemical yield was again confirmed to be >95% the following morning. At this time, mice were anesthetized by 2% isoflurane, and approximately 100 μL (10-15 kBq) of the [^225Ac(macropa)]^+ complex were injected into the tail vein of each mouse. After injection, mice were allowed to recover and roam freely in their cages, and were euthanized by CO2 inhalation at 15 min, 1 h, or 5 h (n=3 at each time point) post-injection. Blood was collected by cardiac puncture and placed into an appropriate test tube for scintillation counting. Tissues collected included heart, liver, kidneys, lungs, small intestine, large intestine, brain, bladder, spleen, stomach, pancreas, bone, thyroid, tail, urine, and feces. Tissues were weighed and then counted with a calibrated gamma counter (Packard, Cobra II model 5002) using three energy windows: 60-120 keV (window A), 180-260 keV (window B), and 400-480 keV (window C). Counting was performed both immediately after sacrifice and after 7 days; counts were decay corrected from the time of injection and then converted to the percentage of injected dose (% ID) per gram of tissue (% ID/g). […]
The biodistribution studies of [^225Ac(DOTA)]^− and ^225Ac(NO3)3 were carried out as described above for [^225Ac(macropa)]^+, with the following modifications. [^225Ac(DOTA)^− was prepared by adding ^225Ac(NO3)3 (338 μL, 1.1 MBq) to a solution of DOTA (100 μg, 20 mg/mL in H2O) in NH4OAc (467 μL, 0.15 M, pH 7). The pH of the solution was adjusted to 7 using NH4OAc (150 μL, 1 M, pH 7) and the solution was heated at 85° C. for 45 min. RCY >99% was confirmed by TLC as described above. [^225Ac(DOTA)]^− was diluted with saline to a final concentration of 0.05 MBq/100 μL, and 100 μL were injected into each mouse. ^225Ac(NO3)3 (˜58 μL, 0.4 MBq) was diluted and injected in the same manner as [^225Ac(DOTA)]^−. One mouse that was to be euthanized at the 5 h time point in the [^225Ac(DOTA)]^− study died shortly after injection. In the same manner, one mouse that was to be euthanized at the 1 h time point in the ^225Ac(NO3)3 study died.
The in vivo stability [^225Ac(macropa)]^+ was examined by comparing its biodistribution to those of ^225Ac(NO3)3 and [^225Ac(DOTA)]^−. C57BL/6 mice were injected via tail vein with 10-50 kBq of each radiometal complex and were sacrificed after 15 min, 1 h, or 5 h. The amount of ^225Ac retained in each organ was quantified by gamma counting and reported as the percent of injected dose per gram of tissue (% ID/g). The results of these studies are compiled in Tables 1-3. Inadequate stability of an ^225Ac complex leading to the loss of radioisotope in vivo is manifested by the accumulation of ^225Ac in the liver, spleen, and bone of mice.^[11,12,32] […] The biodistribution profile of [^225Ac(macropa)]^+ (FIG. 3B) differs markedly from that of ^225Ac(NO3)3. […] Its biodistribution profile was similar to that of [^225Ac(DOTA)]^− (FIG. 3C), which has been previously shown to retain ^225Ac^3+ in vivo.^[7]

[1] = 15 min post i.v. injection, energy window A (60-120 keV)
[2] = 15 min post i.v. injection, energy window B (180-260 keV)
[3] = 15 min post i.v. injection, energy window C (400-480 keV)
[4] = 1 h post i.v. injection, energy window A (60-120 keV)
[5] = 1 h post i.v. injection, energy window B (180-260 keV)
[6] = 1 h post i.v. injection, energy window C (400-480 keV)
[7] = 5 h post i.v. injection, energy window A (60-120 keV)
[8] = 5 h post i.v. injection, energy window B (180-260 keV)
[9] = 5 h post i.v. injection, energy window C (400-480 keV)
[10] = C57BL/6 mice, i.v., 15 min to 5 h

O=[N+]([O-])[O-].O=[N+]([O-])[O-].O=[N+]([O-])[O-].[225Ac] [^225Ac(NO3)3]
Organ distribution: bladder [1]: 1.477 % ID/g | Organ distribution: blood [1]: 40.966 % ID/g | Organ distribution: bone (femur + joint) [1]: 2.764 % ID/g | Organ distribution: brain [1]: 0.614 % ID/g | Organ distribution: feces [1]: 0.240 % ID/g | Organ distribution: heart [1]: 8.557 % ID/g | Organ distribution: kidneys [1]: 10.468 % ID/g | Organ distribution: large intestines [1]: 1.116 % ID/g | Organ distribution: liver [1]: 22.899 % ID/g | Organ distribution: lungs [1]: 12.757 % ID/g | Organ distribution: pancreas [1]: 2.366 % ID/g | Organ distribution: small intestines [1]: 2.002 % ID/g | Organ distribution: spleen [1]: 22.733 % ID/g | Organ distribution: stomach [1]: 2.348 % ID/g | Organ distribution: tail [1]: 7.459 % ID/g | Organ distribution: thyroids [1]: 4.391 % ID/g | Organ distribution: urine [1]: 5.527 % ID/g | Organ distribution: bladder [2]: 1.6996 % ID/g | Organ distribution: blood [2]: 41.5628 % ID/g | Organ distribution: bone (femur + joint) [2]: 2.7487 % ID/g | Organ distribution: brain [2]: 0.6536 % ID/g | Organ distribution: feces [2]: 0.3857 % ID/g | Organ distribution: heart [2]: 8.3605 % ID/g | Organ distribution: kidneys [2]: 9.6424 % ID/g | Organ distribution: large intestines [2]: 1.1570 % ID/g | Organ distribution: liver [2]: 23.6091 % ID/g | Organ distribution: lungs [2]: 12.9714 % ID/g | Organ distribution: pancreas [2]: 2.2821 % ID/g | Organ distribution: small intestines [2]: 1.9641 % ID/g | Organ distribution: spleen [2]: 24.0497 % ID/g | Organ distribution: stomach [2]: 2.3704 % ID/g | Organ distribution: tail [2]: 8.0722 % ID/g | Organ distribution: thyroids [2]: 9.6295 % ID/g | Organ distribution: urine [2]: 5.0951 % ID/g | Organ distribution: bladder [3]: 1.9351 % ID/g | Organ distribution: blood [3]: 42.3521 % ID/g | Organ distribution: bone (femur + joint) [3]: 3.4560 % ID/g | Organ distribution: brain [3]: 0.6755 % ID/g | Organ distribution: feces [3]: 0.4896 % ID/g | Organ distribution: heart [3]: 9.0992 % ID/g | Organ distribution: kidneys [3]: 14.2266 % ID/g | Organ distribution: large intestines [3]: 1.5716 % ID/g | Organ distribution: liver [3]: 24.1147 % ID/g | Organ distribution: lungs [3]: 14.4797 % ID/g | Organ distribution: pancreas [3]: 2.4405 % ID/g | Organ distribution: small intestines [3]: 2.0956 % ID/g | Organ distribution: spleen [3]: 25.4263 % ID/g | Organ distribution: stomach [3]: 2.4232 % ID/g | Organ distribution: tail [3]: 9.1381 % ID/g | Organ distribution: thyroids [3]: 3.5934 % ID/g | Organ distribution: urine [3]: 19.8282 % ID/g | Organ distribution: bladder [4]: 0.9047 % ID/g | Organ distribution: blood [4]: 20.8234 % ID/g | Organ distribution: bone (femur + joint) [4]: 2.4707 % ID/g | Organ distribution: brain [4]: 0.2995 % ID/g | Organ distribution: feces [4]: 0.2189 % ID/g | Organ distribution: heart [4]: 4.4261 % ID/g | Organ distribution: kidneys [4]: 7.2170 % ID/g | Organ distribution: large intestines [4]: 0.6035 % ID/g | Organ distribution: liver [4]: 39.8269 % ID/g | Organ distribution: lungs [4]: 8.2412 % ID/g | Organ distribution: pancreas [4]: 2.1771 % ID/g | Organ distribution: small intestines [4]: 1.5594 % ID/g | Organ distribution: spleen [4]: 34.8831 % ID/g | Organ distribution: stomach [4]: 1.6211 % ID/g | Organ distribution: tail [4]: 5.7939 % ID/g | Organ distribution: thyroids [4]: 2.5988 % ID/g | Organ distribution: urine [4]: 4.5194 % ID/g | Organ distribution: bladder [5]: 0.8092 % ID/g | Organ distribution: blood [5]: 21.4460 % ID/g | Organ distribution: bone (femur + joint) [5]: 2.7705 % ID/g | Organ distribution: brain [5]: 0.3247 % ID/g | Organ distribution: feces [5]: 0.3300 % ID/g | Organ distribution: heart [5]: 4.5832 % ID/g | Organ distribution: kidneys [5]: 6.8770 % ID/g | Organ distribution: large intestines [5]: 0.5629 % ID/g | Organ distribution: liver [5]: 41.0995 % ID/g | Organ distribution: lungs [5]: 8.4426 % ID/g | Organ distribution: pancreas [5]: 2.1579 % ID/g | Organ distribution: small intestines [5]: 1.5192 % ID/g | Organ distribution: spleen [5]: 37.1540 % ID/g | Organ distribution: stomach [5]: 1.5867 % ID/g | Organ distribution: tail [5]: 6.4201 % ID/g | Organ distribution: thyroids [5]: 5.7426 % ID/g | Organ distribution: urine [5]: 7.0564 % ID/g | Organ distribution: bladder [6]: 2.2929 % ID/g | Organ distribution: blood [6]: 11.3736 % ID/g | Organ distribution: bone (femur + joint) [6]: 2.7213 % ID/g | Organ distribution: brain [6]: 0.4402 % ID/g | Organ distribution: feces [6]: 0.1122 % ID/g | Organ distribution: heart [6]: 3.3464 % ID/g | Organ distribution: kidneys [6]: 6.2070 % ID/g | Organ distribution: large intestines [6]: 0.4366 % ID/g | Organ distribution: liver [6]: 23.6180 % ID/g | Organ distribution: lungs [6]: 5.2078 % ID/g | Organ distribution: pancreas [6]: 1.8508 % ID/g | Organ distribution: small intestines [6]: 3.5548 % ID/g | Organ distribution: spleen [6]: 38.1082 % ID/g | Organ distribution: stomach [6]: 2.3350 % ID/g | Organ distribution: tail [6]: 9.0877 % ID/g | Organ distribution: thyroids [6]: 0.0000 % ID/g | Organ distribution: urine [6]: 104.9103 % ID/g | Organ distribution: bladder [7]: 1.4947 % ID/g | Organ distribution: blood [7]: 1.9886 % ID/g | Organ distribution: bone (femur + joint) [7]: 3.5460 % ID/g | Organ distribution: brain [7]: 0.0452 % ID/g | Organ distribution: feces [7]: 0.9445 % ID/g | Organ distribution: heart [7]: 1.3450 % ID/g | Organ distribution: kidneys [7]: 4.6910 % ID/g | Organ distribution: large intestines [7]: 0.6479 % ID/g | Organ distribution: liver [7]: 59.8156 % ID/g | Organ distribution: lungs [7]: 4.1871 % ID/g | Organ distribution: pancreas [7]: 0.4874 % ID/g | Organ distribution: small intestines [7]: 1.3704 % ID/g | Organ distribution: spleen [7]: 62.9614 % ID/g | Organ distribution: stomach [7]: 2.6131 % ID/g | Organ distribution: tail [7]: 23.4055 % ID/g | Organ distribution: thyroids [7]: −2.7052 % ID/g | Organ distribution: urine [7]: 4.8267 % ID/g | Organ distribution: bladder [8]: 1.5234 % ID/g | Organ distribution: blood [8]: 2.0018 % ID/g | Organ distribution: bone (femur + joint) [8]: 3.8533 % ID/g | Organ distribution: brain [8]: 0.0290 % ID/g | Organ distribution: feces [8]: 1.0201 % ID/g | Organ distribution: heart [8]: 1.3948 % ID/g | Organ distribution: kidneys [8]: 3.8752 % ID/g | Organ distribution: large intestines [8]: 0.6744 % ID/g | Organ distribution: liver [8]: 62.0765 % ID/g | Organ distribution: lungs [8]: 4.3379 % ID/g | Organ distribution: pancreas [8]: 0.4455 % ID/g | Organ distribution: small intestines [8]: 1.2201 % ID/g | Organ distribution: spleen [8]: 65.9117 % ID/g | Organ distribution: stomach [8]: 2.5322 % ID/g | Organ distribution: tail [8]: 25.4744 % ID/g | Organ distribution: thyroids [8]: −4.6044 % ID/g | Organ distribution: urine [8]: 3.3142 % ID/g | Organ distribution: bladder [9]: 3.4975 % ID/g | Organ distribution: blood [9]: 2.1769 % ID/g | Organ distribution: bone (femur + joint) [9]: 3.5851 % ID/g | Organ distribution: brain [9]: 0.0430 % ID/g | Organ distribution: feces [9]: 0.8535 % ID/g | Organ distribution: heart [9]: 1.2018 % ID/g | Organ distribution: kidneys [9]: 4.2061 % ID/g | Organ distribution: large intestines [9]: 1.0259 % ID/g | Organ distribution: liver [9]: 54.1727 % ID/g | Organ distribution: lungs [9]: 5.4923 % ID/g | Organ distribution: pancreas [9]: 0.4643 % ID/g | Organ distribution: small intestines [9]: 1.2922 % ID/g | Organ distribution: spleen [9]: 62.2357 % ID/g | Organ distribution: stomach [9]: 2.0358 % ID/g | Organ distribution: tail [9]: 28.4443 % ID/g | Organ distribution: thyroids [9]: −0.4455 % ID/g | Organ distribution: urine [9]: 5.8548 % ID/g | blood clearance and excretion (in words) [10]: slow blood clearance and excretion | organ accumulation (in words) [10]: large accumulation in the liver and spleen
